Data on ten molecules can be found in ChEMBL document CHEMBL1201862, “PubChem BioAssay data set” (2004).

“And” between values parts separate entries of the source, which are not always exact repeats. Equal values may be shown once. Where a name gives a salt, the structure may show the parent alone.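 Tested at 5 concentrations; 48 h exposure; 96-well plates; endpoints linearly interpolated, else capped at highest concentration. Here, GI50 denotes the concentration required for 50% inhibition of growth.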 The source made the active and inactive calls. Rule as the data show it: active = GI50 up to about 1.1 µM and inactive = higher.

Some test systems named below: A498; DU-145; Hs-578T; KM12; MCF7; MDA-MB-435; MDA-N; OVCAR-4; OVCAR-8; PC-3; RXF 393; SF-295; SK-MEL-28; SNB-19; SNB-75; SW-620; T47D; TK-10; UACC-257; M14.
Common to all, as to test: NCI tumour cell line growth inhibition, 48 h

With `CN(C)CCCN1c2ccccc2Sc2ccc(C(F)(F)F)cc21` [TRIFLUPROMAZINE HYDROCHLORIDE], the GI50 is 16.6 µM (inactive) with A498; 17.2 µM (inactive) with DU-145; 14.1 µM (inactive) with Hs-578T; 17.2 µM (inactive) and 15.1 µM (inactive) in the test with KM12; 16.1 µM (inactive) in the test with MCF7; 15.8 µM (inactive) with MDA-MB-435. For the same molecule, the GI50 with MDA-N was 13.4 µM (inactive); in the test on OVCAR-4, 14.8 µM (inactive); with OVCAR-8, 15.6 µM (inactive); in the test with PC-3 it was 15.2 µM (inactive); with RXF 393 it was 13 µM (inactive) and 16 µM (inactive); with SF-295, 15.3 µM (inactive) and 16.8 µM (inactive). Further, the GI50 in the test on SK-MEL-28 is 16.3 µM (inactive) and 14.8 µM (inactive); in the test with SNB-19, 16.6 µM (inactive) and 15 µM (inactive); in the test on SNB-75, 12.1 µM (inactive) and 12.2 µM (inactive); in the test with SW-620, 15.8 µM (inactive) and 17.2 µM (inactive); in the test on T47D, 14.6 µM (inactive); in the test with TK-10, 17.4 µM (inactive) and 15.2 µM (inactive). Besides, the GI50 in the test on UACC-257 was 13.5 µM (inactive) and 15.3 µM (inactive).
For `O=C(O)c1ccc2c(O)c(O)ccc2c1`, the GI50 in the test on A498 was 44.4 µM (inactive); in the test with DU-145, 39.8 µM (inactive); in the test on Hs-578T, 27.2 µM (inactive); in the test with KM12, 16.4 µM (inactive); in the test with M14, 23.5 µM (inactive); in the test with MCF7, 7.23 µM (inactive). The GI50 with MDA-MB-435 is 14.1 µM (inactive); in the test with MDA-N, 18.5 µM (inactive); in the test on OVCAR-4 it was 21.5 µM (inactive); in the test with OVCAR-8, 20 µM (inactive); in the test on PC-3, 33.7 µM (inactive); in the test with RXF 393, 20.9 µM (inactive). The GI50 in the test with SF-295 was 15.2 µM (inactive); in the test on SK-MEL-28 it was > 100 µM (inactive); in the test on SNB-19, 18.8 µM (inactive); in the test with SNB-75 it was 10.4 µM (inactive); in the test on SW-620, 26.5 µM (inactive); in the test with T47D, 45.4 µM (inactive). Also, the GI50 is 13.8 µM (inactive) in the test on TK-10 and 21.1 µM (inactive) with UACC-257.
For `O=C1NC(c2ccccc2)N=C2Oc3ccccc3C=C12` (stereo not given), the GI50 with A498 is 1.27 µM (inactive); with DU-145, 0.231 µM (active); with Hs-578T it was 0.521 µM (active); in the test with KM12, 2.62 µM (inactive); in the test on M14 it was 0.194 µM (active); in the test on MCF7, 0.359 µM (active). The GI50 in the test with MDA-MB-435 is < 0.0265 µM (active); with MDA-N, 0.0738 µM (active); in the test on OVCAR-4 it was > 100 µM (inactive); with OVCAR-8, 3.47 µM (inactive); in the test on PC-3, 0.0753 µM (active); with RXF 393, 0.603 µM (active). Besides, the GI50 is 0.444 µM (active) with SF-295; 38.7 µM (inactive) with SK-MEL-28; 4.61 µM (inactive) in the test with SNB-19; 0.547 µM (active) with SNB-75; 0.621 µM (active) in the test on SW-620; > 100 µM (inactive) in the test on T47D. The GI50 in the test with TK-10 was > 63.1 µM (inactive); with UACC-257, 0.065 µM (active).
Turning to `O=[N+]([O-])c1c(F)c(F)c2c(c1F)N(CCCCCl)c1ccccc1S2`, the GI50 was 8.81 µM (inactive) in the test on A498; 13.2 µM (inactive) in the test on DU-145; 24.8 µM (inactive) in the test with Hs-578T; 10.5 µM (inactive) with KM12; 4.83 µM (inactive) with M14; 3.61 µM (inactive) with MCF7. Moreover, the GI50 was 7.71 µM (inactive) in the test with MDA-MB-435; 15 µM (inactive) in the test on MDA-N; 8.57 µM (inactive) with OVCAR-4; 3.16 µM (inactive) with OVCAR-8; 6.05 µM (inactive) in the test with PC-3; 13.8 µM (inactive) in the test on RXF 393. The GI50 in the test on SF-295 is 16.6 µM (inactive); in the test with SK-MEL-28 it was 5.9 µM (inactive); with SNB-19, 7.69 µM (inactive); in the test with SNB-75, 6.46 µM (inactive); with SW-620, 4.05 µM (inactive); in the test on T47D, 12.4 µM (inactive). Moreover, the GI50 in the test on TK-10 is 16.9 µM (inactive); in the test on UACC-257 it was 11.4 µM (inactive).
For the molecule `CC(C)Oc1cccc(N2C(Nc3ccccc3)=Nc3ccncc3S2(=O)=O)c1`, the GI50 in the test on A498 was 25.7 µM (inactive); in the test with DU-145, 42.4 µM (inactive); with Hs-578T, 39.7 µM (inactive); with KM12 it was 20.7 µM (inactive); in the test on M14, 25.3 µM (inactive); in the test on MCF7, 17.6 µM (inactive). Besides, the GI50 in the test with MDA-MB-435 was 11.8 µM (inactive); with MDA-N it was 23.1 µM (inactive); in the test on OVCAR-4 it was 15.6 µM (inactive); in the test with OVCAR-8, 18.2 µM (inactive); in the test with PC-3, 6.12 µM (inactive); in the test on RXF 393, 21.9 µM (inactive). Also, the GI50 in the test on SF-295 was 23.1 µM (inactive); with SK-MEL-28, 0.32 µM (active); in the test on SNB-19 it was 34.8 µM (inactive); in the test on SNB-75, > 100 µM (inactive); in the test on SW-620, 17.3 µM (inactive); with T47D, 13.8 µM (inactive). For the same molecule, in the test on UACC-257, the GI50 was 17.4 µM (inactive).
As for `CCOC(=O)c1cn(CC)c2ccc3ccsc3c2c1=O`, the GI50 in the test on A498, in the test on DU-145, in the test with Hs-578T, with KM12, in the test with M14 and in the test with MCF7 was > 100 µM (inactive) throughout. Also, the GI50 with MDA-MB-435, with MDA-N, in the test with OVCAR-4, in the test with OVCAR-8, in the test with PC-3 and in the test with RXF 393 was > 100 µM (inactive) each time. Besides, the GI50 in the test with SF-295 was > 100 µM (inactive); in the test with SK-MEL-28, > 100 µM (inactive); with SNB-19, > 100 µM (inactive); with SNB-75 it was 69.5 µM (inactive); with SW-620, > 100 µM (inactive); with T47D, > 100 µM (inactive). The GI50 in the test with TK-10 and in the test with UACC-257 was > 100 µM (inactive) each time.
On to `COC(=O)Cc1c2n(c3ccccc13)C(=O)N1c3ccccc3C(CC(=O)OC)C21` (stereo not given), for which the GI50 in the test on A498 is 39.9 µM (inactive); in the test with DU-145, > 100 µM (inactive); in the test with Hs-578T, 21.1 µM (inactive); with MCF7, 59.3 µM (inactive); in the test with MDA-MB-435 it was > 100 µM (inactive); in the test with MDA-N it was > 100 µM (inactive). Also, the GI50 in the test on OVCAR-4 is 10.7 µM (inactive); with OVCAR-8 it was 31.8 µM (inactive); in the test with PC-3, 51.5 µM (inactive); in the test with RXF 393, 21.2 µM (inactive); in the test on SF-295, 18.8 µM (inactive); in the test with SK-MEL-28, > 100 µM (inactive). The GI50 in the test on SNB-19 is 18.1 µM (inactive); with SNB-75, 7.45 µM (inactive); in the test with SW-620 it was > 100 µM (inactive); in the test on T47D, 76 µM (inactive); in the test with TK-10, 14.9 µM (inactive); in the test with UACC-257, > 100 µM (inactive).
As for `N=C(N)NS(=O)(=O)c1ccc(NCc2cccc3c(=O)c4ccc(Cl)cc4oc23)cc1`, the GI50 with A498 is > 9.02 µM (inactive); with DU-145, 5.57 µM (inactive); in the test on Hs-578T it was 4.37 µM (inactive); with KM12, 3.25 µM (inactive); in the test on M14, 6.7 µM (inactive); with MCF7, 7.45 µM (inactive). The GI50 is 5.04 µM (inactive) with MDA-MB-435; 5.27 µM (inactive) in the test with MDA-N; > 11.2 µM (inactive) in the test on OVCAR-4; 7.52 µM (inactive) in the test on OVCAR-8; 1.4 µM (inactive) in the test on PC-3; 3.08 µM (inactive) in the test on RXF 393. The GI50 was > 9.35 µM (inactive) in the test on SF-295; > 12.2 µM (inactive) with SK-MEL-28; 5.97 µM (inactive) in the test with SNB-19; 3.08 µM (inactive) with SNB-75; 5.41 µM (inactive) with SW-620; > 6.18 µM (inactive) in the test on T47D. For the same molecule, the values for the GI50 in the test on TK-10 and with UACC-257 were > 10.4 µM (inactive) and 11.1 µM (inactive), respectively.
In the case of `CC(=O)[C@@]1(O)CC[C@H]2[C@@H]3C[C@H](C)C4=CC(=O)CC[C@]4(C)[C@H]3[C@@H](O)C[C@@]21C`, the GI50 in the test with A498 was > 100 µM (inactive); in the test on DU-145 it was > 100 µM (inactive); with Hs-578T it was 68.1 µM (inactive); in the test with KM12, > 100 µM (inactive); in the test with M14 it was > 100 µM (inactive); in the test on MCF7, > 100 µM (inactive). The GI50 in the test with MDA-MB-435, in the test with MDA-N, in the test on OVCAR-4, with OVCAR-8, with PC-3 and in the test with RXF 393 was > 100 µM (inactive) throughout. Moreover, the GI50 in the test with SF-295 was > 100 µM (inactive); with SK-MEL-28, > 100 µM (inactive); with SNB-19 it was > 100 µM (inactive); in the test on SNB-75, > 100 µM (inactive); in the test with SW-620 it was > 100 µM (inactive); with T47D, 94.2 µM (inactive). Moreover, the GI50 in the test with TK-10 and in the test on UACC-257 was > 100 µM (inactive) each time.
Take `CN(c1cn(C2CC[C@@H](CO)O2)c(=O)[nH]c1=O)C1CCCCC1` (stereo not given in full): the GI50 with A498 is > 100 µM (inactive); in the test with DU-145, > 100 µM (inactive); in the test with Hs-578T, 30 µM (inactive); in the test with KM12, > 100 µM (inactive); with M14, > 100 µM (inactive); with MCF7, > 100 µM (inactive). In addition, the GI50 in the test with MDA-MB-435, in the test on MDA-N, with OVCAR-4, in the test with OVCAR-8, in the test with PC-3 and with RXF 393 was > 100 µM (inactive) each time. Also, the GI50 was > 100 µM (inactive) in the test on SF-295; > 100 µM (inactive) in the test on SK-MEL-28; > 100 µM (inactive) in the test on SNB-19; 21.9 µM (inactive) with SNB-75; > 100 µM (inactive) with SW-620; > 100 µM (inactive) in the test on T47D. In the test with TK-10, the GI50 was > 100 µM (inactive).
